Measured values taken from patent US20220259164A1, “USE OF AMINOTHIOL COMPOUNDS AS CEREBRAL NERVE OR HEART PROTECTIVE AGENT” (SHANGHAI KECHOW PHARMA, INC., priority 2019, published 2022).
Where a SMILES comes first, the peptide text is derived from it. [ ]: non-standard residue; d: D form. NMeC = CN[C@@H](CS)C(=O)O

Legend:
[1] = test system: bleomycin (BLM)-induced scleroderma mouse model; experiment: Hydroxyproline level in skin lesion, BLM-induced scleroderma mouse model; format: in vivo, mice; details: compound A (hydrochloride) 600 mg/kg/d by gavage or compound B (trifluoroacetate) 200 mg/kg/d i.p., 28 days with BLM
Source text: Materials: C57BL/6 female mice, weighing 20-25 g, were purchased from Shanghai SLAC Laboratory Animal Co., Ltd. Using a random number table method, 24 mice were divided into a blank control group (1), a scleroderma model group (2), a scleroderma+compound A treatment group (3), and a scleroderma+compound B treatment group (4), with 6 mice in each group. Bleomycin (BLM) was purchased from Sigma. An H-E staining kit was purchased from Beijing Solarbio Science & Technology Co., Ltd. Compound A used in this example was in the form of a hydrochloride thereof, and compound B was in the form of a trifluoroacetate thereof.
Method: The intended injection site (area 1 cm^2) of the mice was shaved using an electric shaver. […] Conventional iodine tincture was used to disinfect the back skin of the mice, and a local diseased skin tissue was surgically cut, fixed in 4% paraformaldehyde, embedded in paraffin, sectioned, and analyzed by H-E staining. […]
Method: Part of the skin lesion tissue of the mice was taken, and the contents of hydroxyproline and hydrogen peroxide in the skin lesion region were detected according to the requirements in the kit instructions.

[2] = test system: rat myocardial infarction model (coronary ligation 30 min, reperfusion); experiment: Myocardial infarction model: myocardial infarction range (TTC staining); format: in vivo; details: for Infarction range (%): x ± s, n = 10; for Improvement rate (%) of myocardial infarction range: compared with model group
Experimental: (§1) 1. The rats were grouped and administered according to the following methods (2) Compound B (i.v.) at 100 mg/kg (3) Compound A (i.v.) at 100 mg/kg (4) Compound A (oral) at 500 mg/kg (5) Isosorbide mononitrate injection (i.v.) at 1 mg/kg (equivalent to clinical equivalent dose). There were 10 rats in each group, and the rats were administered intravenously immediately after 30 min of ischemia and reperfusion, i.v. 10% 1 min+i.v. drip 90% 30 min. The administration volume was 2 ml/rat. Compound A (oral) at 500 mg/kg was administered intragastrically 2 h after reperfusion when the animal was awake, and the administration volume was 10 ml/kg. Note: Compounds A and B used in this example were in the form of hydrochloride salts thereof. Given intraperitoneal injection of 3% sodium pentobarbital at 60 mg/kg for general anesthesia, the rats were fixed on an operating table in the supine position. The surgical field of the anterolateral chest was depilated and routinely disinfected. The skin and muscular layer were cut open, purse-string suture was performed on the muscular layer, the chest was opened on the left at the fourth intercostal space, and the heart was pulled out with a ring-shaped retractor. At the position of the anterior descending coronary artery 3-4 mm below the left atrial appendage, a 6/0 damage-free silk thread was threaded, and a nylon thread with a diameter of 1.6 mm was juxtaposed and ligated together with the anterior descending coronary artery, while the other end was left outside the body for later use. The heart was placed back into the chest cavity, the air in the chest cavity was emptied, and the chest cavity was closed. 30 min after ligation, the nylon thread was carefully removed for reperfusion. Compared with the normal lead II electrocardiogram (ECG-II), ST segment elevation in ECG-II by 0.1 mV or more 30 min after coronary artery ligation was regarded as successful ischemia.

[3] = test system: rat myocardial infarction model (coronary ligation 30 min, reperfusion); experiment: Myocardial infarction model: myocardial enzyme LDH in serum; format: in vivo; details: for Improvement rate (%) of LDH: compared with model group; for LDH: serum, x ± s, n = 10
Experimental: as §1, with “ischemia. […] Blood was collected from the rats through the abdominal aorta and centrifuged at 3000 rpm×10 min at 4° C., and the upper serum was taken to determine LDH by enzyme-linked immunosorbent assay.” for “ischemia.”

[4] = compound A (hydrochloride) i.v. 100 mg/kg
[5] = compound A (hydrochloride) oral 500 mg/kg
[6] = compound B (hydrochloride) i.v. 100 mg/kg

SMILES	Level of hydroxyproline in the skin lesion site [1]	Infarction range (%) ([2]; compound A (hydrochloride) i.v. 100 mg/kg after 30 min ischemia and reperfusion)	Improvement rate (%) of myocardial infarction range [2, 4]	Infarction range (%) ([2]; compound A (hydrochloride) oral 500 mg/kg 2 h after reperfusion)	Improvement rate (%) of myocardial infarction range [2, 5]	Improvement rate (%) of LDH [3, 4]	LDH [3, 4]	Improvement rate (%) of LDH [3, 5]	LDH [3, 5]	Infarction range (%) ([2]; compound B (hydrochloride) i.v. 100 mg/kg after 30 min ischemia and reperfusion)	Improvement rate (%) of myocardial infarction range [2, 6]	Improvement rate (%) of LDH [3, 6]	LDH [3, 6]
CNC(=O)[C@H](CS)NC(=O)[C@H](CS)NC [Compound A, (R)-3-mercapto-N—((R)-3-mercapto-1-(methylamino)-1-oxoprop-2-yl)-2-(methylamino)propionamide] (H-[NMeC]-Cys-NHMe)	down-regulated	30.5 ± 11 %	24.5%	28.9 ± 12.2 %	28.5%	19.9%	1521.6 ± 353.6 U/L	25.8%	1408 ± 308.7 U/L	–	–	–	–
CNC(=O)[C@H](CS)NC(=O)[C@H](CS)NC(=O)[C@H](CS)NC [Compound B, (R)-3-mercapto-N—((R)-3-mercapto-1-(((R)-3-mercapto-1-(methylamino)-1-oxoprop-2-yl)amino)-1-oxoprop-2-yl)-2-(methylamino)propionamide] (H-[NMeC]-Cys-Cys-NHMe)	down-regulated	–	–	–	–	–	–	–	–	30.2 ± 8.2 %	25.2%	22.2%	1476.7 ± 282.4 U/L
